From paper PMC12320299 (Chemical Science, 2025)
Read-outs that look alike come from different tables or passages of the source.

Columns and labels:
[1] = system: SW480 cancer cells; test: Proteome profiling of compound-treated SW480 cancer cells (24 h, approx. IC50, CYT and NE fractions); assay type: cell-based, human; conditions: for N° significantly regulated proteins, Total: CYT and NE; for N° proteins down-regulated, CYT / N° proteins upregulated, CYT: cytoplasmic fraction
Method: To gain insight into potential modes of action and derive structure–activity relationships on a molecular level, proteomic profiling experiments were carried out based on label-free quantification (LFQ) by nano-liquid chromatography tandem mass spectrometry (nLC-MS/MS). […] Six replicates were used per condition. The perturbations were evaluated at subcellular resolution by fractionating cells into cytoplasmic (CYT) and nuclear (NE) protein fractions. Those have been separately proteolytically digested and analysed (Fig. 3A). The perturbations with the 3-Et-NQ and 3-Morph-NQ complexes were performed against their respective solvent-treated controls (CON), yielding a total of 72 samples. […] Statistical significance of individual protein regulations was calculated by multiple testing-corrected P-values based on 5% false discovery rate (FDR = 0.05 and S0 = 0.1).
The position of each group represents the summed fold-changes of the individual proteins in the group according to the subcellular space, i.e., CYT and NE fractions, while the size represents the number of proteins in each group. […]
Proteome profiling of compound-treated SW480 cancer cells […]
cells per well and left to adhere in complete cell culture medium. After 24 h, the medium was exchanged with fresh complete medium (DMSO mock control) or fresh medium containing […]
solution in DMSO, respectively) and incubated for another 24 h. Each condition was carried out in hexuplicates. The cells were processed according to a nucleocytoplasmic fractionation protocol as previously described.3 All steps were performed on ice. The medium was removed, and the cells were washed twice with 1×PBS (phosphate buffered saline, 3 mL). Then, PBS was thoroughly removed. Isotonic lysis buffer (10 mM HEPES, 10 mM NaCl, 3.5 mM MgCl2, 1 mM EGTA, 0.25 M Sucrose, 0.5% Triton X-100) containing protease inhibitors (1% PMSF, Sigma, and 1% protease and phosphatase inhibitor cocktail, Roche) was added to the flasks, the cells were scraped off and transferred into labelled 15 mL Falcon tubes. The cellular membrane was ruptured using shear stress by pressing the cell suspension through a syringe 9–12 times. Membrane rupture with intact nuclei was monitored under a microscope. After centrifugation (960 g, 5 min), the supernatant containing the cytoplasmic (CYT) proteins was transferred into new tubes containing ice-cold ethanol (1 : 5, HPLC grade) and precipitated […]
overnight at –20 °C. The pellet containing the nuclei was incubated with a hypertonic solution (10 mM Tris-HCl, 1 mM EDTA and 0.5 M NaCl) and subsequently diluted 1:10 with NP-40 buffer (10 mm Tris-HCl, 1 mm EDTA and 0.5% Triton X-100) containing protease inhibitors (1% PMSF, Sigma, and 1% protease and phosphatase inhibitor cocktail, Roche). After centrifugation (960 g, 5 min), the soluble nuclear (NE) proteins were also transferred into new tubes containing ice-cold ethanol (1 : 5, HPLC grade) and precipitated overnight at –20 °C.
The precipitated proteins were finally pelleted by centrifugation (5000 g, 30 min, 4 °C), the solution was decanted and the pellet dried under vacuum.

[2] = system: SW480; set-up: method as in earlier work; conditions: 96 h incubation; ref 48 (ESI Ref. 1); cited from earlier work
[3] = system: CH1/PA-1; set-up: method as in Ref. 1 (ESI); conditions: 96 h incubation; ref Ref. 1 (ESI); cited from earlier work
[4] = nuclear fraction, FDR = 0.05, S0 = 0.1

## CCC1=C2[O][Ru][O]C2(n2cccn2)c2ccccc2C1=O.Cc1ccc(C(C)C)cc1 (stereo not drawn) [Compound 1a, [(3-ethyl-4-oxo-(pyrazolyl)-dihydronaphthalene)(cymene)ruthenium(II)]]
[1]
  N° proteins down-regulated, NE: 211
  N° proteins upregulated, NE: 178
  N° significantly regulated proteins, Total: 810
[1]; CYT fraction
  TP53 regulation in cytoplasmic fraction: strongest down-regulated protein
[1]; FDR = 0.05, S0 = 0.1
  N° proteins down-regulated, CYT: 298
  N° proteins upregulated, CYT: 123
[2]
  IC50: 0.046 ± 0.007 µM
[3]
  IC50: 62 ± 5 µM

## CCC1=C2[O][Os][O]C2(n2cccn2)c2ccccc2C1=O.Cc1ccc(C(C)C)cc1 (stereo not drawn) [Compound 2a]
[1]
  N° significantly regulated proteins, Total: 968
[1]; CYT fraction
  GO BP Cellular response to heat, summed fold-changes: 12.51
  GO BP Cellular response to oxidative stress, summed fold-changes: 2.82
  GO BP DNA duplex unwinding, summed fold-changes: -6.24
  GO BP DNA replication, summed fold-changes: -1.08
  GO BP Double-strand break repair, summed fold-changes: -1.23
  GO BP Macroautophagy, summed fold-changes: 10.51
  GO BP Negative regulation of apoptotic process, summed fold-changes: 3.78
  GO BP Negative regulation of translation, summed fold-changes: -16.92
  GO BP Proteasome-mediated ubiquitin-dependent protein catabolic process, summed fold-changes: 2.56
  GO BP Protein K48-linked ubiquitination, summed fold-changes: -5.49
  GO BP Protein folding, summed fold-changes: 12.25
  GO BP Protein transport, summed fold-changes: -1.68
  GO BP Regulation of mRNA stability, summed fold-changes: -7.54
  GO BP Response to oxidative stress, summed fold-changes: 3.27
  GO BP Ribosomal small subunit biogenesis, summed fold-changes: -13.81
  GO BP Stress granule assembly, summed fold-changes: -9.95
  GO BP Translation, summed fold-changes: -61.19
  GO BP mRNA processing, summed fold-changes: -0.15
  GO BP rRNA processing, summed fold-changes: -20.40
  GO CC Azurophil granule lumen, summed fold-changes: 3.77
  GO CC Cell surface, summed fold-changes: 0.48
  GO CC Centrosome, summed fold-changes: -15.78
  GO CC Chromosome, telomeric region, summed fold-changes: -11.84
  GO CC Cytoplasmic stress granule, summed fold-changes: -16.41
  GO CC Cytosol, summed fold-changes: -84.80
  GO CC Endoplasmic reticulum, summed fold-changes: -28.57
  GO CC Extracellular exosome, summed fold-changes: -26.34
  GO CC Ficolin-1-rich granule lumen, summed fold-changes: 8.74
  GO CC Focal adhesion, summed fold-changes: -17.07
  GO CC Intracellular membrane-bounded organelle, summed fold-changes: -3.80
  GO CC Membrane, summed fold-changes: -160.70
  GO CC Mitochondrion, summed fold-changes: -60.30
  GO CC Nucleoplasm, summed fold-changes: -4.45
  GO CC Nucleus, summed fold-changes: -0.98
  GO CC Perinuclear region of cytoplasm, summed fold-changes: -5.25
  GO CC Proteasome complex, summed fold-changes: 3.84
  GO CC Protein-containing complex, summed fold-changes: -12.02
  GO CC Ribonucleoprotein complex, summed fold-changes: -24.78
  GO CC Spliceosomal complex, summed fold-changes: -1.04
  KEGG pathway Apoptosis, summed fold-changes: 5.03
  KEGG pathway Cellular senescence, summed fold-changes: -0.24
  KEGG pathway Ferroptosis, summed fold-changes: 5.49
  KEGG pathway Proteasome, summed fold-changes: 4.95
  KEGG pathway Protein processing in endoplasmic reticulum, summed fold-changes: 25.89
  KEGG pathway RNA degradation, summed fold-changes: -8.81
  KEGG pathway Ribosome, summed fold-changes: -52.73
[1]; NE fraction
  GO BP Cellular response to heat, summed fold-changes: 8.73
  GO BP Cellular response to oxidative stress, summed fold-changes: -0.12
  GO BP DNA duplex unwinding, summed fold-changes: -0.60
  GO BP DNA replication, summed fold-changes: -7.21
  GO BP Double-strand break repair, summed fold-changes: -0.87
  GO BP Macroautophagy, summed fold-changes: 4.83
  GO BP Negative regulation of apoptotic process, summed fold-changes: 2.62
  GO BP Negative regulation of translation, summed fold-changes: 1.88
  GO BP Proteasome-mediated ubiquitin-dependent protein catabolic process, summed fold-changes: 45.28
  GO BP Protein K48-linked ubiquitination, summed fold-changes: -1.15
  GO BP Protein folding, summed fold-changes: 2.10
  GO BP Protein transport, summed fold-changes: 1.57
  GO BP Regulation of mRNA stability, summed fold-changes: -0.24
  GO BP Response to oxidative stress, summed fold-changes: -0.72
  GO BP Ribosomal small subunit biogenesis, summed fold-changes: -1.30
  GO BP Stress granule assembly, summed fold-changes: 3.01
  GO BP Translation, summed fold-changes: -4.88
  GO BP mRNA processing, summed fold-changes: 1.71
  GO BP rRNA processing, summed fold-changes: -2.04
  GO CC Azurophil granule lumen, summed fold-changes: -1.14
  GO CC Cell surface, summed fold-changes: 0.76
  GO CC Centrosome, summed fold-changes: 0.70
  GO CC Chromosome, telomeric region, summed fold-changes: -12.89
  GO CC Cytoplasmic stress granule, summed fold-changes: 4.82
  GO CC Cytosol, summed fold-changes: 8.58
  GO CC Endoplasmic reticulum, summed fold-changes: 8.32
  GO CC Extracellular exosome, summed fold-changes: 5.34
  GO CC Ficolin-1-rich granule lumen, summed fold-changes: 23.99
  GO CC Focal adhesion, summed fold-changes: 9.01
  GO CC Intracellular membrane-bounded organelle, summed fold-changes: 8.65
  GO CC Membrane, summed fold-changes: -2.15
  GO CC Mitochondrion, summed fold-changes: -7.86
  GO CC Nucleoplasm, summed fold-changes: 29.04
  GO CC Nucleus, summed fold-changes: 29.16
  GO CC Perinuclear region of cytoplasm, summed fold-changes: 8.90
  GO CC Proteasome complex, summed fold-changes: 37.70
  GO CC Protein-containing complex, summed fold-changes: -3.65
  GO CC Ribonucleoprotein complex, summed fold-changes: 3.30
  GO CC Spliceosomal complex, summed fold-changes: -3.40
  KEGG pathway Apoptosis, summed fold-changes: -0.73
  KEGG pathway Cellular senescence, summed fold-changes: -3.09
  KEGG pathway Ferroptosis, summed fold-changes: 1.80
  KEGG pathway Proteasome, summed fold-changes: 35.64
  KEGG pathway Protein processing in endoplasmic reticulum, summed fold-changes: 19.56
  KEGG pathway RNA degradation, summed fold-changes: -5.97
  KEGG pathway Ribosome, summed fold-changes: -4.75
[1]; FDR = 0.05, S0 = 0.1
  N° proteins down-regulated, CYT: 429
  N° proteins upregulated, CYT: 202
[1]; [4]
  N° proteins down-regulated, NE: 170
  N° proteins upregulated, NE: 167
